Data set [1] relates to P. berghei liver schizonts. The experiment in a line: GHPB single point primary screen, FLAR luciferase endpoint. The note with it: 1 µM; for activity and selectivity in the primary screens: hit = > 80% inhibition of P. berghei and < 15% inhibition of HepG2. Type of data set: cell-based, Plasmodium berghei. As for the experimental part: The GHPB is an open-access collection of compounds (80 for vector control, 80 for zoonotic and neglected diseases, 80 for drug resistant malaria) obtained from MMV. The library was supplied in a 96-well microtitre plate and moved into a low-volume 384-well plate (Greiner Bio-One, cat 784,261) using a Biomek NXp to transfer 5 μL of 1 mM compound into the destination wells. MMV390048 (1 µM) was used for the positive control wells and DMSO (0.1% v/v) was used for the negative control wells. The GHPB was screened by seeding 5 × 10^3 cells/well which, after 24 h, were infected with a maximum available inoculum of 1.44 × 10^3 sporozoites/well. Three hours post-infection, plates were treated with a pin tool as described above. After 44 h, media was dumped from the plate, lysed using the freeze/thaw method, and luciferase signal was detected with 1 × FLAR as described above.

Data set [2] has as its target P. berghei liver schizonts. The experiment in a line: GHPB dose-response confirmation, FLAR luciferase endpoint. The format is cell-based, Plasmodium berghei. The settings on record: for Activity (grouping in dose-response confirmation runs): grouped as selectively active, active but with low selectivity, nonselective or inactive. The protocol: A total of 35 compounds were identified for resupply of fresh powder for confirmation in dose–response assays. […] Powders were diluted to 50 mM in DMSO and plated in 1000 × source plates as described above. MMV390048 and puromycin were plated as the positive control for P. berghei liver schizont activity and cytotoxicity, respectively. Two independent experiments using 1 × FLAR and 5 × 10^3 cells/well were performed to assess the potency of these compounds against P. berghei liver schizonts, each with an independent production run of P. berghei sporozoites. […] Separately, two independent runs of the HepG2 cultured in galactose, assayed as described above, were used to assess the cytotoxicity potency and selectivity indices for these compounds. Both P. berghei liver schizont and HepG2 cytotoxicity data were loaded into CDD Vault for normalization, curve fitting, and EC50 calculations as described above. Receiver-operator characteristic (ROC) curves were generated using Graphpad Prism and area under the curve (AUC) was calculated using the Wilson/Brown method for both P. berghei liver schizont activity and HepG2 cytotoxicity.

Another data set relates to HepG2 cells. The experiment in a line: HepG2 cytotoxicity assay in galactose media, 72 h, hepatic nuclei count by HCI. The format is cell-based, Homo sapiens. As for the experimental part: To assess the general cytotoxicity of GHPB compounds, HepG2 cells were cultured in media containing galactose instead of glucose to avoid false negatives due to the Crabtree effect. Following propagation of HepG2 in T-75 flasks with glucose-containing media as above, media was aspirated, the cell monolayer was washed with PBS, and then cells were trypsinized as above. Released cells were then resuspended in media containing glucose-free DMEM (Gibco, cat 11,966–025) supplemented with 10% FBS (Corning, cat 35–016-CV), 10 mM galactose (Sigma, cat G5388), 1 mM sodium pyruvate (Corning, cat 25–000-CI), 1 × penicillin–streptomycin-neomycin mix (Gibco, cat 15,640–055), and 2 mM L-glutamine (Gibco, cat 25,030–081). The cell density was calculated using trypan blue exclusion on a haemocytometer, diluted to 50 cells/µL, and 40 µL of cells were seeded into collagen-coated 384-well plates (Greiner Bio-One, cat 781,956) using a Biomek NXp (Beckman Coulter), resulting in 2 × 10^3 cells/well. The day after seeding, plates were treated with a pin tool as above and cultured for 72 h. Plates were then fixed with 4% paraformaldehyde, stained with 10 µg/mL Hoechst 33,342, and imaged on an ImageXpress Micro Confocal. Hepatic nuclei were quantified using MetaXpress (Molecular Devices) image analysis software. Both P. berghei liver schizont and HepG2 cytotoxicity data were loaded into CDD Vault for normalization and hit selection as described above. A total of 35 compounds were identified for resupply of fresh powder for confirmation in dose–response assays. […] Powders were diluted to 50 mM in DMSO and plated in 1000 × source plates as described above. […] Separately, two independent runs of the HepG2 cultured in galactose, assayed as described above, were used to assess the cytotoxicity potency and selectivity indices for these compounds. […] Receiver-operator characteristic (ROC) curves were generated using Graphpad Prism and area under the curve (AUC) was calculated using the Wilson/Brown method for both P. berghei liver schizont activity and HepG2 cytotoxicity.

Data set [3] relates to P. berghei liver schizonts. More on the design: method as in PMID 30523084. The settings on record: read-out: EC50 against P. berghei liver schizonts (reported); cited from earlier work.

Where two headings read alike, the source gives them in different places.

In general, EC50 refers to the concentration needed to bring the measured effect to its halfway point. Turning to `Cn1ccnc1SCC(=O)Nc1ccc(C(=O)Nc2ncccc2O)cc1` [MMV1267536], the “inhibition of P. berghei liver schizonts in the primary screen” value in data set [1] (44 h) was 69.1%. For the same compound, the “activity and selectivity in the primary screens” value in data set [1] is “not considered hits”. In data set [2] (dose-response confirmation, FLAR, read-out: EC50 against P. berghei liver schizonts), the EC50 was determined as 127 nM. Further, the “Activity (grouping in dose-response confirmation runs)” value in data set [2] was “active and selective”. Further, the “HepG2 Cytotoxicity (pEC50 ± SD)” value in the data set on HepG2 cells stood at 4.83 ± 0.26.

Regarding `Cn1cc(CN2CCc3c(c(C(=O)NCc4nccs4)nn3Cc3ccccc3)C2)c2ccccc21` [MMV1167451], in data set [3], the EC50 is 6300 nM.

For `O=C(Nc1ncccc1O)c1ccc(N2CCOCC2)nc1` [MMV1103183], the “activity and selectivity in the primary screens” value in data set [1] is “active and selective”. In addition, the “Activity (grouping in dose-response confirmation runs)” value in data set [2] was “active and selective”. Moreover, the “HepG2 Cytotoxicity (pEC50 ± SD)” value in the data set with HepG2 cells was determined as 5.03 ± 0.02.

For the compound `CCCOc1ccc(C(F)(F)F)cc1NC(=O)c1nc2nccc(C)n2n1` [MMV1262756], the EC50 in data set [3] was 105 nM.

Source of the values: publication PMC11585928, “Screening the Global Health Priority Box against Plasmodium berghei liver stage parasites using an inexpensive luciferase detection protocol” (Malaria Journal, 2024).
